Test results from patent US7829063B2, “Development of molecular imaging probes for carbonic anhydrase-IX using click chemistry” (Siemens Medical Solutions USA, Inc., priority 2007, dated 2010).
Where two headings read alike, the source gives them in different places.

Target: T1, CA-IX (Homo sapiens, UniProt Q16790)
T1 construct: His tag (C); purchased R&D Systems Inc. 2188-CA; host or cells: mouse myeloma cell line NS0
Test: CA-IX combinatorial library screening, competitive fluorescence-based assay with dansylamide (DNSA)
Format: binding
Conditions: sample concentrations 100 nM and 1000 nM, DNSA 200 μM, screening at 1 μM; for inhibition at 1 µM: 1 h
Procedure, shortened: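 Recombinant His-tagged CA-IX (NS0-expressed) in phosphate buffer pH 7.4 with test compound at 100 nM or 1000 nM; competitive displacement started with 200 μM dansylamide (stock concentration). After 1 h at 25 °C, fluorescence read at 460 nm (excitation 290 nm).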

[1] = Table 1, Libraries 1-3, read-out: In Vitro Binding Assay (Library Screening)
[2] = Table 2, Libraries 4-7, read-out: In Vitro Binding Assay (Library (Screening))

SMILES | inhibition at 1 µM [1] | inhibition at 1 µM [2] | also measured
Cn1c(CNC(=O)[C@H](Cc2ccccc2)n2cc(-c3ccc(S(N)(=O)=O)cc3)nn2)nc2ccccc21 [DHK-2-22] |  | < 40% | 
Cc1onc(-c2ccccc2)c1CNC(=O)[C@H](Cc1ccccc1)n1cc(-c2ccc(S(N)(=O)=O)cc2)nn1 [DHK-2-15] |  | < 40% | 
CCOC(=O)C(Cc1ccccc1)NC(=O)[C@H](Cc1ccccc1)n1cc(COc2ccc3nc(S(N)(=O)=O)sc3c2)nn1 (stereo partly shown) [DHK-2-59] |  | < 40% | 
COC(=O)C(C)NC(=O)[C@H](Cc1ccccc1)n1cc(COc2ccc3nc(S(N)(=O)=O)sc3c2)nn1 (stereo partly shown) [DHK-2-61] |  |  | In Vitro Binding Assay (Library Screening) (Table 2, Libraries 4-7): √
CCOC(=O)C1CCN(C(=O)[C@H](C(C)C)n2cc(COc3ccc4nc(S(N)(=O)=O)sc4c3)nn2)CC1 [DHK-2-41] |  |  | In Vitro Binding Assay (Library Screening) (Table 2, Libraries 4-7): √
NS(=O)(=O)c1ccc(-c2cn([C@@H](Cc3ccccc3)C(=O)NCC3COc4ccccc4O3)nn2)cc1 (stereo partly shown) [DHK-2-20] |  | < 40% | 
CCOC(=O)CCN(Cc1ccco1)C(=O)[C@H](Cc1ccccc1)n1cc(COc2ccc3nc(S(N)(=O)=O)sc3c2)nn1 [DHK-2-67] |  | < 40% | 
CCOC(=O)C1CCN(C(=O)[C@H](Cc2ccccc2)n2cc(COc3ccc4nc(S(N)(=O)=O)sc4c3)nn2)CC1 [DHK-2-68] |  |  | In Vitro Binding Assay (Library Screening) (Table 2, Libraries 4-7): √
NS(=O)(=O)c1ccc(-c2cn([C@@H](Cc3ccccc3)C(=O)NCc3ccccn3)nn2)cc1 [DHK-2-11] |  | < 40% | 
NS(=O)(=O)c1nc2ccc(OCc3cn([C@@H](Cc4ccccc4)C(=O)N4CCN(c5ccccn5)CC4)nn3)cc2s1 [DHK-2-58] |  | < 40% | 
NS(=O)(=O)c1ccc(-c2cn([C@@H](Cc3ccccc3)C(=O)N3CCC[C@@H]3CO)nn2)cc1 [DHK-2-6] |  | < 40% | 
CC(C)[C@@H](C(=O)N1CCC(N2CCCC2)CC1)n1cc(COc2ccc3nc(S(N)(=O)=O)sc3c2)nn1 [DHK-2-45] |  | < 40% | 

The next lines start with results.

inhibition at 1 µM [1] | inhibition at 1 µM [2] | SMILES | also measured
< 40% |  | NS(=O)(=O)c1ccc(C(=O)NCc2cn(C3CCN(C(=O)/C=C/c4ccccc4)CC3)nn2)cc1 [DHK97] | 
 | < 40% | CC(C)[C@@H](C(=O)N1CCC(N2CCCC2)CC1)n1cc(-c2ccc(S(N)(=O)=O)cc2)nn1 [DHK188] | 
 | < 40% | CC(C)[C@@H](C(=O)N1CCN(c2ncccn2)CC1)n1cc(-c2ccc(S(N)(=O)=O)cc2)nn1 [DHK190] | 
 | < 40% | COC(=O)[C@H](C)NC(=O)[C@H](C(C)C)n1cc(-c2ccc(S(N)(=O)=O)cc2)nn1 [DHK177] | 
< 40% |  | NS(=O)(=O)c1ccc(-c2cn(CCn3c(=O)[nH]c4ccccc4c3=O)nn2)cc1 [DHK78] | 
< 40% |  | CC(C)C(C(=O)Nc1ccc(-c2ccccc2)cc1)n1cc(COc2ccc3nc(S(N)(=O)=O)sc3c2)nn1 (stereo not shown) [DHK134] | 
< 40% |  | CC(C)[C@@H](C(=O)NCCc1ccsc1)n1cc(COc2ccc3nc(S(N)(=O)=O)sc3c2)nn1 [DHK139] | 
< 40% |  | CC(C)[C@@H](C(=O)Nc1ccc(-c2ccccc2)cc1)n1cc(CNC(=O)c2ccc(S(N)(=O)=O)cc2)nn1 [DHK61] | 
< 40% |  | CC(C)C(C(=O)NCCCN1CCOCC1)n1cc(CNC(=O)c2ccc(S(N)(=O)=O)cc2)nn1 (stereo not shown) [DHK58] | 
< 40% |  | NS(=O)(=O)c1ccc(-c2cn(-c3cccc(C(=O)NN4CCOCC4)c3)nn2)cc1 [DHK104] | 
< 40% |  | NS(=O)(=O)c1ccc(-c2cn(C3C(O)C(O)OC3C(O)CO)nn2)cc1 (stereo not shown) [DHK111] | 
< 40% |  | CC(CN(C)C)Cn1cc(CNC(=O)c2ccc(S(N)(=O)=O)cc2)nn1 (stereo not shown) [DHK43] | 
< 40% |  | NS(=O)(=O)c1nc2ccc(OCc3cn(-c4cccc(C(=O)NN5CCOCC5)c4)nn3)cc2s1 [DHK116] | 
< 40% |  | Cc1ccc(CNC(=O)[C@@H](C(C)C)n2cc(-c3ccc(S(N)(=O)=O)cc3)nn2)cc1F [DHK20] | 
< 40% |  | NS(=O)(=O)c1nc2ccc(OCc3cn(CCN4CCOCC4)nn3)cc2s1 [DHK114] | 
< 40% |  | CC1CCCN(C(=O)C(C(C)C)n2cc(-c3ccc(S(N)(=O)=O)cc3)nn2)C1 (stereo not shown) [DHK15] | 
